Like-named read-outs stand apart in the source and are kept apart here. One block for each compound: values may come before it.
How the values were obtained:
LM8 cells = test: Cell growth assay (Alamar blue), LM8; type: cell-based, mouse; details: Mus musculus, 72 h; LM8 cells, 3 days, Alamar blue
Procedure: (§1) HeLa, LM8, and 3T3-L1 cells were cultured for 3 days at 2.5–5×10^3 cells/well in 12-well plates with each well filled with 1 ml of DMEM-FBS (for HeLa and 3T3-L1) or MEM-α-FBS (for LM8) together with drugs at various concentrations. Then, the incubation media were discarded and the cells were washed with 1 ml of PBS(–) (20 mM phosphate buffered saline, pH 7.4) and incubated with 1 ml of fresh DMEM-FBS (HeLa and 3T3-L1) or MEM-α-FBS (LM8) containing 5% (v/v) of Alamar blue (a cell number indicator; Wako Pure Chemical Industries, Osaka, Japan) until the color changed. The relative cell number was assessed by measuring absorbance at 570 nm (reference at 595 nm) as described previously, [14]; DIF-related compounds and BODIPY-conjugated compounds hardly disturbed the cell number assessment with Alamar blue (data not shown), probably because the additive compounds were washed out when cell number was assessed. For determination of the 50% inhibitory concentration (IC50) of each drug, the cells were cultured for 3 days in the presence of each drug at various concentrations. Relative cell numbers were determined for each concentration for each drug and the IC50 was determined from the dose-response curves.
(§2) Supplementary file pone.0072118.s001.tif: Figure S1 Effects of BODIPY-DIF-3 and CCCP on cell growth, and cellular localization of BODIPY-DIF-3 in LM8 cells. (A) Cells were incubated for 4 days with 5–20 µM of BODIPY-DIF-3 (closed circles) or 2–10 µM of CCCP (closed triangles), and relative cell number was assessed by the use of Alamar blue. Data are the mean values and SD (bars) of three independent experiments. (B) Cells were incubated for 0.5 h or 3 days with 20 µM of BODIPY-DIF-3, washed free of the additive, and observed microscopically. (C) Cells were incubated for 0.5 h with BODIPY-DIF-3 (20 µM), Hoechst (0.1 µg/ml), and MitoTracker (0.1 µM), washed free of the additives, and observed by using a high-magnification fluorescence microscope. (D) Cells were incubated for 3 days with BODIPY-DIF-3 (20 µM) and then for 0.5 h with Hoechst (0.1 µg/ml) and MitoTracker (0.1 µM). Cells were washed free of the additives and observed by using a high-magnification fluorescence microscope. (TIF) Click here for additional data file.

mouse liver mitochondria = test: Mitochondrial oxygen consumption (Clark-type oxygen electrode); type: biochemical
Procedure: Mitochondria were isolated from mouse liver (ICR; 7–10 week-old females) by differential centrifugation as described previously. Cells were homogenized in a Potter glass homogenizer with H-Buffer (250 mM sucrose, 10 mM Tris-HCl pH 7.4), and centrifuged at 800g for 1 min at 4°C. The supernatant was centrifuged at 6,000g for 5 min, and the resulting pellet, the crude mitochondrial fraction, was suspended in H-Buffer. The suspension was layered over a discontinuous sucrose gradient consisting of 1.1 M and 1.6 M sucrose in a Tris buffer (10 mM Tris-HCl pH 7.4), and centrifuged for 3 h at 90,000g at 4°C. The interface was collected in Tris buffer and centrifuged at 6,000g for 5 min. The resulting pellets were suspended in Tris buffer and used for experiments after confirming the presence of the mitochondrial marker cytochrome c.
Mitochondrial oxygen consumption was determined using a Clark-type oxygen electrode (Strathkelvin Instruments Ltd., North Lanarkshire, Scotland) as described, [39]. The mitochondria-enriched fraction was incubated at 30°C in oxygen measurement buffer (225 mM mannitol, 75 mM sucrose, 10 mM KCl, 0.1 mM EDTA, 3 mM phosphate, 5 mM succinate, 5 mM glutamate, and 20 mM Tris-HCl pH 7.4) in the presence or absence of various concentrations of the DIF-like molecules or CCCP. After recording ‘State 4’ of the respiration reaction, an aliquot of ADP was added to a final concentration of 200 µM to induce ‘State 3’. The PC100 (100% promoting concentration) of each additive was defined as the drug concentration that doubled the basal rate of oxygen consumption during State 3, which was calculated from the dose-response plot for the rate of oxygen consumption (Figure 8).

HeLa cells = test: Cell growth assay (Alamar blue), HeLa; type: cell-based, human
Procedure: HeLa, LM8, and 3T3-L1 cells were cultured for 3 days at 2.5–5×10^3 cells/well in 12-well plates with each well filled with 1 ml of DMEM-FBS (for HeLa and 3T3-L1) or MEM-α-FBS (for LM8) together with drugs at various concentrations. Then, the incubation media were discarded and the cells were washed with 1 ml of PBS(–) (20 mM phosphate buffered saline, pH 7.4) and incubated with 1 ml of fresh DMEM-FBS (HeLa and 3T3-L1) or MEM-α-FBS (LM8) containing 5% (v/v) of Alamar blue (a cell number indicator; Wako Pure Chemical Industries, Osaka, Japan) until the color changed. […] Relative cell numbers were determined for each concentration for each drug and the IC50 was determined from the dose-response curves.

3T3-L1 cells = test: Cell growth assay (Alamar blue), 3T3-L1; type: cell-based, mouse; details: Mus musculus, 72 h; 3T3-L1 cells, 3 days, Alamar blue
Procedure: as §1
as §2, with “pone.0072118.s002.tif:” for “pone.0072118.s001.tif:”, “S2” for “S1”, “3T3-L1” for “LM8”

[1] = tested on: calmodulin-dependent cyclic nucleotide phosphodiesterase (PDE1); set-up: method as in PMID 15059913; details: cited from earlier work
[2] = tested on: mitochondrial malate dehydrogenase (mMDH); set-up: method as in PMID 20173310; details: cited from earlier work
[3] = tested on: mitochondrial respiration; set-up: method as in PMID 7777565; details: in D. discoideum; read-out: IC50 for inhibition (uncoupling) of mitochondrial respiration; cited from earlier work
[4] = tested on: cyclin D1 and cyclin D3 in HeLa cells; test: Western blotting of cyclin D expression; type: cell-based, human; details: 20 h, DIF-3 20 µM, Bu-DIF-3 5–7.5 µM, BODIPY-DIF-3 20 µM, CCCP 10 µM, azide 0.01%
Procedure: HeLa cells were incubated for 20 h with 1 ml of DMEM-FBS containing the indicated additives in 12-well plates (2–4×10^5 cells/well), washed twice with PBS(–), harvested by adding 100–200 µl of an SDS-sample buffer solution (in proportion to cell density: relative cell number), sonicated (heated), and used for SDS-PAGE. Western blot transfer and immunoblotting were performed as described previously, by using a primary antibody for cyclin D1, cyclin D2, cyclin D3, or GAPDH, and a second antibody, an alkaline phosphatase-conjugated anti-mouse or anti-rabbit IgG antibody. […] Visualized protein bands were then digitized and quantified by using Adobe Photoshop CS4 (version 11.0) (Adobe, San Jose, CA, USA) and ImageJ Software (version 1.4) (http://rsb.info.nih.gov/ij/).

IC50 (HeLa cells; Homo sapiens, 72 h, HeLa cells, 3 days, Alamar blue): > 20 µM
Structure (SMILES): CCCCNC(=O)CCC1=[N+]2C(=Cc3c(C)cc(C)n3[B-]2(F)F)C=C1 [Bu-BODIPY]
IC50 (LM8 cells): > 20 µM
Effect on basal rate of O2 consumption (mouse liver mitochondria; 1–100 µM): had no effect
PC100 (µM) for Mito. O2 consumption (mouse liver mitochondria; 100% promoting concentration: doubles the basal rate of oxygen consumption, 30°C): >100 µM
Effect on cell growth (relative cell number) (HeLa cells; HeLa, 5–20 µM (Bu-BODIPY up to 20 µM), 3 days): hardly affected
IC50 (3T3-L1 cells): > 20 µM

Structure (SMILES): CCCCCC(=O)c1c(O)c(Cl)c(OC)c(Cl)c1O [DIF-1, 1-(3,5-dichloro-2,6-dihydroxy-4-methoxyphenyl)hexan-1-one, reference compound]
Inhibition of PDE1 [1]: direct inhibitors of PDE1
Binding to and inhibition of mMDH [2]: binds to mitochondrial malate dehydrogenase (mMDH) and inhibits its activity
IC50 [3]: 0.54 µM
Effect on cell growth (relative cell number) (HeLa cells; HeLa, 20 µM, 3 days): significantly suppressed

Structure (SMILES): [N-]=[N+]=[N-].[Na+] [azide, NaN3, reference compound]
Expression of cyclin D1 [4]: suppressed
Expression of cyclin D3 [4]: but not of cyclin D3
Effect on cell growth (relative cell number) (HeLa cells): suppressed cell growth
